Experimental data from US10065990B2, “Cyclic peptide compound, and preparation method, pharmaceutical composition and use thereof” (HANGZHOU GUANYU BIO-MEDICAL CO., LTD, priority 2013, dated 2018).
Like-named read-outs stand apart in the source and are kept apart here.

Experiments:
[1] = test system: K562 (human leukemia cells); test: MTT cancer cell growth inhibition; type: cell-based; conditions: MTT, 72 hours incubation, K562 cells, read-out: GI50 K562
Description: (§1) MTT assay principle is yellow MTT can penetrate membrane into the cell, succinic dehydrogenase of the mitochondria in living cells can make exogenous MTT reduction of insoluble in water of blue-violet acicular formazan for crystallization and deposition in the cell, crystallization can be dissolved dimethyl sulfoxide (DMSO) solution, detected its absorbance at 490 nm/570 nm wavelength by enzyme-linked immunosorbent assay, which can reflect the number of cells.
(§2) Using DMEM+10% FBS culture medium or using 1640+10% FBS culture, respectively.
(§3) a) Cells were seeded in 96-well plates with the inoculation of 1500/well, 190 μl/hole, 37° C., 5% of CO2 incubator overnight;
(§4) b) The next day each well was added 10 μl of different drugs. The final concentration of drug was 10^−5˜10^−10M, three parallel holes; 37° C., 5% CO2 culture incubator for 72 hours incubation;
(§5) c) Per well was added 20 μl 5 mg/ml of MTT, 37° C., 5% CO2 culture incubator for 4 hours incubation;
(§6) d) The supernatant was discarded. Each well was added 100 μl of DMSO and oscillation;
(§7) e) 570 nm readings. Calculate cell viability. GI50 calculation based on the results.

[2] = test system: SGC-7901 (human gastric cancer cells); test: MTT cancer cell growth inhibition; type: cell-based; conditions: MTT, 72 hours incubation, SGC-7901 cells, read-out: GI50 SGC-7901
Description: as §1, §2, §3, §4, §5, §6, §7

[3] = test system: MOLT-4 (human acute lymphoblastic leukemia cells); test: MTT cancer cell growth inhibition; type: cell-based; conditions: MTT, 72 hours incubation, read-out: GI50 Mol
Description: as §1, §2, §3, §4, §5, §6, §7

[4] = test system: KBM5-T315I (human chronic myelogenous leukemia); test: MTT cancer cell growth inhibition; type: cell-based; conditions: MTT, 72 hours incubation, KBM5-T315I cells, read-out: GI50 KBM5-T315I
Description: as §1, §2, §3, §4, §5, §6, §7

[5] = test system: MDA-MB-231 (breast cancer cells); test: MTT cancer cell growth inhibition; type: cell-based
Description: as §1, §2, §3, §4, §5, §6, §7

[6] = test system: Hela (human cervical cancer cells); test: MTT cancer cell growth inhibition; type: cell-based; conditions: MTT, 72 hours incubation, read-out: GI50 Hela
Description: as §1, §2, §3, §4, §5, §6, §7

[7] = test system: H1975 (non-small cell lung adenocarcinoma); test: MTT cancer cell growth inhibition; type: cell-based; conditions: MTT, 72 hours incubation, H1975 cells, read-out: GI50 H1975
Description: as §1, §2, §3, §4, §5, §6, §7

[8] = test system: DU145 (human prostate cancer cells); test: MTT cancer cell growth inhibition; type: cell-based; conditions: MTT, 72 hours incubation, read-out: GI50 Du1
Description: as §1, §2, §3, §4, §5, §6, §7

[9] = test system: N-87 (human gastric cancer cells); test: MTT cancer cell growth inhibition; type: cell-based; conditions: MTT, 72 hours incubation, N-87 cells, read-out: GI50 N-87
Description: as §1, §2, §3, §4, §5, §6, §7

[10] = test system: BGC-823 (human gastric cancer cells); test: MTT cancer cell growth inhibition; type: cell-based; conditions: MTT, 72 hours incubation, read-out: GI50 BG
Description: as §1, §2, §3, §4, §5, §6, §7

[11] = test system: U937 (human leukemia cells); test: MTT cancer cell growth inhibition; type: cell-based; conditions: MTT, 72 hours incubation, read-out: GI50 U93
Description: as §1, §2, §3, §4, §5, §6, §7

[12] = test system: lncap (prostate cancer cells); test: MTT cancer cell growth inhibition; type: cell-based; conditions: MTT, 72 hours incubation, read-out: GI50 lnca
Description: as §1, §2, §3, §4, §5, §6, §7

[13] = test system: HT1080 (human fibrosarcoma cells); test: MTT cancer cell growth inhibition; type: cell-based; conditions: MTT, 72 hours incubation, read-out: GI50 HT1
Description: as §1, §2, §3, §4, §5, §6, §7

[14] = test system: KBM-5 (human chronic myelogenous leukemia); test: MTT cancer cell growth inhibition; type: cell-based; conditions: MTT, 72 hours incubation, KBM-5 cells, read-out: GI50 KBM-5
Description: as §1, §2, §3, §4, §5, §6, §7

[15] = test system: MCF-7 (human breast cancer cells); test: MTT cancer cell growth inhibition; type: cell-based; conditions: 72 hours incubation, read-out: GI50 MCF
Description: as §1, §2, §3, §4, §5, §6, §7

[16] = test system: HCC827 (human non-small cell lung cancer cells); test: MTT cancer cell growth inhibition; type: cell-based; conditions: MTT, 72 hours incubation, HCC827 cells, read-out: GI50 HCC827
Description: as §1, §2, §3, §4, §5, §6, §7

[17] = test system: A549 (human lung cancer cells); test: MTT cancer cell growth inhibition; type: cell-based; conditions: MTT, 72 hours incubation, read-out: GI50 A54
Description: as §1, §2, §3, §4, §5, §6, §7

[18] = test system: Huh-7 (human hepatoma cells); test: MTT cancer cell growth inhibition; type: cell-based; conditions: MTT, 72 hours incubation, Huh-7 cells, read-out: GI50 Huh-7
Description: as §1, §2, §3, §4, §5, §6, §7

[19] = test system: Bel-7402 (human hepatoma cells); test: MTT cancer cell growth inhibition; type: cell-based; conditions: MTT, 72 hours incubation, Bel-7402 cells, read-out: GI50 Bel-7402
Description: as §1, §2, §3, §4, §5, §6, §7

HDAC7 = molecular target: T1, HDAC7 (Homo sapiens, UniProt Q8WUI4); test: HDAC biochemical activity measurement (fluorescent substrate deacetylation);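 note: fluorogenic deacetylation assay using acetyl-lysine substrate at 20 µM, enzyme and compound incubated 30 min at 37 °C, then developer added, fluorescence read at 360/460 nm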; conditions: HDAC7; 37° C. 30 minutes
T1 sequence (Q8WUI4 1-952): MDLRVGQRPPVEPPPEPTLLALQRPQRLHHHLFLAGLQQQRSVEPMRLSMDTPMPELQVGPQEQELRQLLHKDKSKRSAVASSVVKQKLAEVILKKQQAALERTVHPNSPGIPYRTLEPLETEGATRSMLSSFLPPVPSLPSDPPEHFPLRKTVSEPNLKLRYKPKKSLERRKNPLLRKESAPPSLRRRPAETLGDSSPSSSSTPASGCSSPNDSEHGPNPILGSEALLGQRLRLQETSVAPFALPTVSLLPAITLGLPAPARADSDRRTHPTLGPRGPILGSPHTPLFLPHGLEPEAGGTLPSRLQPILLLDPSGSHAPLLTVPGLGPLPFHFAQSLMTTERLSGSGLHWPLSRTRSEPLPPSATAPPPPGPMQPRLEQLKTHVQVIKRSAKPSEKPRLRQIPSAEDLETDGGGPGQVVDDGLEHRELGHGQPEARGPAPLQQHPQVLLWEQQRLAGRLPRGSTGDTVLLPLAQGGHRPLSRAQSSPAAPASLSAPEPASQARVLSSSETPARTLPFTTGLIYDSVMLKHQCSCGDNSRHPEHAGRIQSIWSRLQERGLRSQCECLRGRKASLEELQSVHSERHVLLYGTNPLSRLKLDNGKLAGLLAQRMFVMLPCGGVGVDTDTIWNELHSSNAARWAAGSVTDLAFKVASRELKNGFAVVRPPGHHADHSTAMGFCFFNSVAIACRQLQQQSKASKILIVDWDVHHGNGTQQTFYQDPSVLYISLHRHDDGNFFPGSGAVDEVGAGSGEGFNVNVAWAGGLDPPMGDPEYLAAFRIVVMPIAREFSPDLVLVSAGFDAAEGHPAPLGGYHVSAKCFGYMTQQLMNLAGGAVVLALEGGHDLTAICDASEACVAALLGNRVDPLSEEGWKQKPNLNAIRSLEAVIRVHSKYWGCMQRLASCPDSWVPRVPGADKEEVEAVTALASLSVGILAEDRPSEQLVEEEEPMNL

[20] = test system: PANC-1 (Pac-1, human pancreatic cancer cells); test: MTT cancer cell growth inhibition; type: cell-based; conditions: MTT, 72 hours incubation, read-out: GI50 PAN
Description: as §1, §2, §3, §4, §5, §6, §7

[21] = Homo sapiens, MDA-MB-231, 72 h, read-out: GI50 MDA-MB-231, MTT, 72 hours incubation, MDA-MB-231 cells

Structure (SMILES): C/C=C1\NC(=O)c2cc(F)cc(n2)CNC(=O)C[C@@H](/C=C/CCS)OC(=O)[C@H](CC)NC1=O [Compound 110]
- GI50 ([1]; Homo sapiens, K562, 72 h): 17 nM
- GI50 ([2]; Homo sapiens, SGC-7901, 72 h): 57 nM
- GI50 ([3]; Homo sapiens, MOLT-4, 72 h): 30 nM
- GI50 ([4]; Homo sapiens, 72 h): 29 nM
- GI50 [5, 21]: 13 nM
- GI50 ([6]; Homo sapiens, HeLa, 72 h): 60 nM
- GI50 ([7]; Homo sapiens, NCI-H1975, 72 h): 59 nM
- GI50 ([8]; Homo sapiens, DU-145, 72 h): 50 nM
- GI50 ([9]; Homo sapiens, 72 h): 35 nM
- GI50 ([10]; Homo sapiens, BGC-823, 72 h): 30 nM
- GI50 ([11]; Homo sapiens, U-937, 72 h): 60 nM
- GI50 ([12]; Homo sapiens, LNCaP, 72 h): 30 nM
- GI50 ([13]; Homo sapiens, HT-1080, 72 h): 70 nM
- GI50 ([14]; Homo sapiens, KBM5, 72 h): 41 nM
- GI50 ([15]; Homo sapiens, MCF7, 72 h): 30 nM
- GI50 ([16]; Homo sapiens, HCC827, 72 h): 62 nM
- GI50 ([17]; Homo sapiens, A549, 72 h): 60 nM
- GI50 ([18]; Homo sapiens, Huh-7, 72 h): 48 nM
- GI50 ([19]; Homo sapiens, Bel-7402, 72 h): 62 nM
- IC50 HDAC7 (HDAC7): no activity

Structure (SMILES): C/C=C1\NC(=O)c2ccc(F)c(n2)CNC(=O)C[C@@H](/C=C/CCSC(C)=O)OC(=O)[C@H](C(C)C)NC1=O [Compound 95]
- GI50 ([1]; Homo sapiens, K562, 72 h): 26 nM
- GI50 ([2]; Homo sapiens, SGC-7901, 72 h): 42 nM
- GI50 ([3]; Homo sapiens, MOLT-4, 72 h): 20 nM
- GI50 ([4]; Homo sapiens, 72 h): 38 nM
- GI50 [5, 21]: 22 nM
- GI50 ([6]; Homo sapiens, HeLa, 72 h): 70 nM
- GI50 ([7]; Homo sapiens, NCI-H1975, 72 h): 35 nM
- GI50 ([8]; Homo sapiens, DU-145, 72 h): 20 nM
- GI50 [10]: 20 nM
- GI50 ([11]; Homo sapiens, U-937, 72 h): 30 nM
- GI50 ([12]; Homo sapiens, LNCaP, 72 h): 20 nM
- GI50 ([13]; Homo sapiens, HT-1080, 72 h): 80 nM
- GI50 ([20]; Homo sapiens, PANC-1, 72 h): 80 nM
- GI50 ([14]; Homo sapiens, KBM5, 72 h): 76 nM
- GI50 ([15]; Homo sapiens, MCF7, 72 h): 30 nM
- GI50 ([16]; Homo sapiens, HCC827, 72 h): 83 nM
- GI50 ([17]; Homo sapiens, A549, 72 h): 40 nM
- GI50 ([18]; Homo sapiens, Huh-7, 72 h): 22 nM
- GI50 ([19]; Homo sapiens, Bel-7402, 72 h): 83 nM
- IC50 HDAC7 (HDAC7): no activity

Structure (SMILES): C/C=C1\NC(=O)c2nc(ccc2F)CNC(=O)C[C@@H](/C=C/CCSC(C)=O)OC(=O)[C@H](C(C)C)NC1=O [Compound 93]
- GI50 ([1]; Homo sapiens, K562, 72 h): 37 nM
- GI50 ([2]; Homo sapiens, SGC-7901, 72 h): 68 nM
- GI50 [3]: 30 nM
- GI50 ([4]; Homo sapiens, 72 h): 34 nM
- GI50 [5, 21]: 38 nM
- GI50 [6]: 50 nM
- GI50 ([7]; Homo sapiens, NCI-H1975, 72 h): 27 nM
- GI50 [8]: 30 nM
- GI50 [10]: 20 nM
- GI50 [11]: 20 nM
- GI50 [12]: 30 nM
- GI50 [13]: 30 nM
- GI50 [20]: 30 nM
- GI50 ([14]; Homo sapiens, KBM5, 72 h): 53 nM
- GI50 [15]: 30 nM
- GI50 ([16]; Homo sapiens, HCC827, 72 h): 34 nM
- GI50 [17]: 60 nM
- GI50 ([18]; Homo sapiens, Huh-7, 72 h): 38 nM
- GI50 ([19]; Homo sapiens, Bel-7402, 72 h): 34 nM
- IC50 HDAC7 (HDAC7): no activity

Structure (SMILES): C/C=C1\NC(=O)c2nc(ccc2F)CNC(=O)C[C@@H](/C=C/CCSC(C)=O)OC(=O)[C@H](CC)NC1=O [Example 57]
- GI50 [1]: 35 nM
- GI50 [2]: 92 nM
- GI50 [4]: 54 nM
- GI50 ([5]; read-out: GI50 MDA-MB-231, MTT, 72 hours incubation, MDA-MB-231 cells): 28 nM
- GI50 [7]: 55 nM
- GI50 [9]: 53 nM
- GI50 [14]: 74 nM
- GI50 [16]: 73 nM
- GI50 [18]: 28 nM
- GI50 [19]: 73 nM

Structure (SMILES): C/C=C1\NC(=O)c2ccc(F)c(n2)CNC(=O)C[C@@H](/C=C/CCSC(C)=O)OC(=O)[C@H](C(C)C)NC1=O (single isomer, unassigned) [Example 50]
- GI50 [3]: 20 nM
- GI50 [6]: 70 nM
- GI50 [8]: 40 nM
- GI50 [10]: 60 nM
- GI50 [11]: 30 nM
- GI50 [12]: 20 nM
- GI50 [13]: 80 nM
- GI50 [20]: 80 nM
- GI50 [15]: 60 nM
- GI50 [17]: 30 nM
- IC50 HDAC7 (HDAC7): no activity
